According to US20060172993A1 (priority 2002, published 2006):

System: Patients diagnosed with Alzheimer's Disease
Test: Adverse events / safety monitoring in the trial
Assay type: in vivo, human
Experimental: Subjects in the Placebo group received 21 weeks (5 months) of placebo medication.
The safety of the drug was also monitored throughout the study. Blood samples for biochemistry and haematology and random urine sample for urinalysis were taken at each visit and at completion for all efficacy testing. Systolic and diastolic blood pressure were measured in the sitting position, pulse and vital signs were recorded at each visit.

Structure (SMILES): COc1ccc2c3c1O[C@H]1C[C@@H](O)C=C[C@@]31CCN(C)C2 [GAL, galantamine]
- Adverse event Agitation, % of patients (8 mg/day): (15.0%)
- Adverse event Agitation, number of patients (8 mg/day): 21
- Adverse event Anorexia, % of patients (8 mg/day): (5.7%)
- Adverse event Anorexia, number of patients (8 mg/day): 8
- Adverse event Depression, % of patients (8 mg/day): (2.9%)
- Adverse event Depression, number of patients (8 mg/day): 4
- Adverse event Diarrhea, % of patients (8 mg/day): (5.0%)
- Adverse event Diarrhea, number of patients (8 mg/day): 7
- Adverse event Dizziness, % of patients (8 mg/day): (5.0%)
- Adverse event Dizziness, number of patients (8 mg/day): 7
- Adverse event Dyspepsia, % of patients (8 mg/day): (2.9%)
- Adverse event Dyspepsia, number of patients (8 mg/day): 4
- Adverse event Edema peripheral, % of patients (8 mg/day): (6.4%)
- Adverse event Edema peripheral, number of patients (8 mg/day): 9
- Adverse event Fall, % of patients (8 mg/day): (7.9%)
- Adverse event Fall, number of patients (8 mg/day): 11
- Adverse event Headache, % of patients (8 mg/day): (3.6%)
- Adverse event Headache, number of patients (8 mg/day): 5
- Adverse event Injury, % of patients (8 mg/day): (3.6%)
- Adverse event Injury, number of patients (8 mg/day): 5
- Adverse event Nausea, % of patients (8 mg/day): (5.7%)
- Adverse event Nausea, number of patients (8 mg/day): 8
- Adverse event Rhinitis, % of patients (8 mg/day): (6.4%)
- Adverse event Rhinitis, number of patients (8 mg/day): 9
- Adverse event Urinary tract infection, % of patients (8 mg/day): (7.9%)
- Adverse event Urinary tract infection, number of patients (8 mg/day): 11
- Adverse event Vomiting, % of patients (8 mg/day): (3.6%)
- Adverse event Vomiting, number of patients (8 mg/day): 5
- Adverse event Weight decrease, % of patients (8 mg/day): (1.4%)
- Adverse event Weight decrease, number of patients (8 mg/day): 2
- Adverse event of clinical interest Bradycardia, % of patients (8 mg/day): (3.6%)
- Adverse event of clinical interest Bradycardia, number of patients (8 mg/day): 5
- Adverse event of clinical interest Convulsions, number of patients (8 mg/day): 0
- Adverse event of clinical interest Fatigue, % of patients (8 mg/day): (2.1%)
- Adverse event of clinical interest Fatigue, number of patients (8 mg/day): 3
- Adverse event of clinical interest Muscle weakness, % of patients (8 mg/day): (0.7%)
- Adverse event of clinical interest Muscle weakness, number of patients (8 mg/day): 1
- Adverse event of clinical interest Syncope, % of patients (8 mg/day): (1.4%)
- Adverse event of clinical interest Syncope, number of patients (8 mg/day): 2
- Serious adverse event Abdominal pain, % of patients (8 mg/day): (0.0%)
- Serious adverse event Abdominal pain, number of patients (8 mg/day): 0
- Serious adverse event Agitation, % of patients (8 mg/day): (1.4%)
- Serious adverse event Agitation, number of patients (8 mg/day): 2
- Serious adverse event Asthenia, % of patients (8 mg/day): (0.0%)
- Serious adverse event Asthenia, number of patients (8 mg/day): 0
- Serious adverse event Basal cell carcinoma, % of patients (8 mg/day): (0.0%)
- Serious adverse event Basal cell carcinoma, number of patients (8 mg/day): 0
- Serious adverse event Breast neoplasm female, % of patients (8 mg/day): (0.0%)
- Serious adverse event Breast neoplasm female, number of patients (8 mg/day): 0
- Serious adverse event Cardiac failure, % of patients (8 mg/day): (0.0%)
- Serious adverse event Cardiac failure, number of patients (8 mg/day): 0
- Serious adverse event Dehydration, % of patients (8 mg/day): (0.0%)
- Serious adverse event Dehydration, number of patients (8 mg/day): 0
- Serious adverse event Diarrhea, % of patients (8 mg/day): (0.0%)
- Serious adverse event Diarrhea, number of patients (8 mg/day): 0
- Serious adverse event Dyspnea, % of patients (8 mg/day): (0.0%)
- Serious adverse event Dyspnea, number of patients (8 mg/day): 0
- Serious adverse event Fall, % of patients (8 mg/day): (2.9%)
- Serious adverse event Fall, number of patients (8 mg/day): 4
- Serious adverse event Gi haemorrhage, % of patients (8 mg/day): (0.0%)
- Serious adverse event Gi haemorrhage, number of patients (8 mg/day): 0
- Serious adverse event Injury, % of patients (8 mg/day): (0.7%)
- Serious adverse event Injury, number of patients (8 mg/day): 1
- Serious adverse event Myocardial infarction, % of patients (8 mg/day): (2.1%)
- Serious adverse event Myocardial infarction, number of patients (8 mg/day): 3
- Serious adverse event Nausea, % of patients (8 mg/day): (0.0%)
- Serious adverse event Nausea, number of patients (8 mg/day): 0
- Serious adverse event Pneumonia, % of patients (8 mg/day): (0.7%)
- Serious adverse event Pneumonia, number of patients (8 mg/day): 1
- Serious adverse event Sepsis, % of patients (8 mg/day): (0.0%)
- Serious adverse event Sepsis, number of patients (8 mg/day): 0
- Serious adverse event Surgical intervention, % of patients (8 mg/day): (0.0%)
- Serious adverse event Surgical intervention, number of patients (8 mg/day): 0
- Serious adverse event Syncope, % of patients (8 mg/day): (0.7%)
- Serious adverse event Syncope, number of patients (8 mg/day): 1
- Serious adverse event Thrombophlebitis deep, % of patients (8 mg/day): (0.0%)
- Serious adverse event Thrombophlebitis deep, number of patients (8 mg/day): 0
- Serious adverse event Transient ischemic attack, % of patients (8 mg/day): (0.7%)
- Serious adverse event Transient ischemic attack, number of patients (8 mg/day): 1
- Serious adverse event Urinary tract infection, % of patients (8 mg/day): (0.7%)
- Serious adverse event Urinary tract infection, number of patients (8 mg/day): 1
- Serious adverse event Vomiting, % of patients (8 mg/day): (0.0%)
- Serious adverse event Vomiting, number of patients (8 mg/day): 0
- Total patients with any SAE, % (8 mg/day): (10.0%)
- Total patients with any SAE, number (8 mg/day): 14
- Adverse event Agitation, % of patients (16 mg/day): (10.0%)
- Adverse event Agitation, number of patients (16 mg/day): 28
- Adverse event Anorexia, % of patients (16 mg/day): (6.5%)
- Adverse event Anorexia, number of patients (16 mg/day): 18
- Adverse event Depression, % of patients (16 mg/day): (8.6%)
- Adverse event Depression, number of patients (16 mg/day): 24
- Adverse event Diarrhea, % of patients (16 mg/day): (12.2%)
- Adverse event Diarrhea, number of patients (16 mg/day): 34
- Adverse event Dizziness, % of patients (16 mg/day): (5.4%)
- Adverse event Dizziness, number of patients (16 mg/day): 15
- Adverse event Dyspepsia, % of patients (16 mg/day): (4.7%)
- Adverse event Dyspepsia, number of patients (16 mg/day): 13
- Adverse event Edema peripheral, % of patients (16 mg/day): (2.9%)
- Adverse event Edema peripheral, number of patients (16 mg/day): 8
- Adverse event Fall, % of patients (16 mg/day): (5.05%)
- Adverse event Fall, number of patients (16 mg/day): 14
- Adverse event Headache, % of patients (16 mg/day): (6.8%)
- Adverse event Headache, number of patients (16 mg/day): 19
- Adverse event Injury, % of patients (16 mg/day): (4.3%)
- Adverse event Injury, number of patients (16 mg/day): 12
- Adverse event Nausea, % of patients (16 mg/day): (13.3%)
- Adverse event Nausea, number of patients (16 mg/day): 37
- Adverse event Rhinitis, % of patients (16 mg/day): (3.2%)
- Adverse event Rhinitis, number of patients (16 mg/day): 9
- Adverse event Urinary tract infection, % of patients (16 mg/day): (8.2%)
- Adverse event Urinary tract infection, number of patients (16 mg/day): 23
- Adverse event Vomiting, % of patients (16 mg/day): (6.1%)
- Adverse event Vomiting, number of patients (16 mg/day): 17
- Adverse event Weight decrease, % of patients (16 mg/day): (5.4%)
- Adverse event Weight decrease, number of patients (16 mg/day): 15
- Adverse event of clinical interest Bradycardia, % of patients (16 mg/day): (2.5%)
- Adverse event of clinical interest Bradycardia, number of patients (16 mg/day): 7
- Adverse event of clinical interest Convulsions, number of patients (16 mg/day): 0
- Adverse event of clinical interest Fatigue, % of patients (16 mg/day): (3.6%)
- Adverse event of clinical interest Fatigue, number of patients (16 mg/day): 10
- Adverse event of clinical interest Muscle weakness, % of patients (16 mg/day): (1.1%)
- Adverse event of clinical interest Muscle weakness, number of patients (16 mg/day): 3
- Adverse event of clinical interest Syncope, % of patients (16 mg/day): (1.8%)
- Adverse event of clinical interest Syncope, number of patients (16 mg/day): 5
- Serious adverse event Abdominal pain, % of patients (16 mg/day): (0.7%)
- Serious adverse event Abdominal pain, number of patients (16 mg/day): 2
- Serious adverse event Agitation, % of patients (16 mg/day): (0.4%)
- Serious adverse event Agitation, number of patients (16 mg/day): 1
- Serious adverse event Asthenia, % of patients (16 mg/day): (0.7%)
- Serious adverse event Asthenia, number of patients (16 mg/day): 2
